Experimental data published in patent US9464086B2, “Crystalline forms of N,N-dicyclopropyl-4-(1,5-dimethyl-1 H-pyrazol-3-ylamino)-6-ethyl-1-methyl-1,6-dihydroimidazo[4,5-D]pyrrolo[2,3-B]pyridine-7-carboxamide for the treatment of myeloproliferative disorders” (BRISTOL-MYERS SQUIBB COMPANY, priority 2013, dated 2016).

Legend:
Format in all cases: physicochemical
[1] = Stability of the crystalline form under accelerated conditions of temperature and humidity; conditions: solid form; up to 4 weeks
From the text: (§1) As previously noted, the N-2 form was selected due to a number of properties including chemical/physical stability, reproducibility and hygroscopicity.

[2] = Stability on exposure to UV/HIL; conditions: solid form; 4 days
From the text: as §1

[3] = Stability of milled API under high humidity and temperature open dish conditions; conditions: up to 2 weeks, 25° C./60% RH and 40° C./75% RH open
From the text: as §1

CCn1c(C(=O)N(C2CC2)C2CC2)cc2c3c(ncn3C)c(Nc3cc(C)n(C)n3)nc21 [Form N-2, N,N-dicyclopropyl-4-(1,5-dimethyl-1H-pyrazol-3-ylamino)-6-ethyl-1-methyl-1,6-dihydroimidazo[4,5-d]pyrrolo[2,3-b]pyridine-7-carboxamide]
stable: stability under accelerated conditions of temperature and humidity [1] | stability on exposure to UV/HIL [2] | stability under high humidity and temperature open dish conditions [3]
